# Non-standard residues stand in square brackets, D forms with d. pGlu = O=C1CC[C@@H](C(=O)O)N1
# Legend:
# Assay type in all cases: cell-based, human
# Settings in all cases: 10 uM
# [1] = system: whole blood from subjects with T1D and Celiac disease; assay: Whole blood cytokine release assay, IP-10 (MAGPIX), Example 1
# [2] = system: whole blood from subjects with T1D and Celiac disease; assay: Whole blood cytokine release assay, IFN-γ (MAGPIX), Example 1
# [3] = system: whole blood from subjects with T1D and Celiac disease; assay: Whole blood cytokine release assay, IL-2 (MAGPIX), Example 1
# [4] = subject 1, day 0 since oral challenge
# [5] = subject 1, day 6 since oral challenge
# [6] = subject 2, day 0 since oral challenge
# [7] = subject 2, day 6 since oral challenge
# [8] = subject 6, day 0 since oral challenge
# [9] = subject 6, day 6 since oral challenge
# [10] = subject 7, day 0 since oral challenge
# [11] = subject 7, day 6 since oral challenge
substance,measurement,setting,value
"(pE)LQPFPQPELPYPQPQ-NH2 ([pGlu]LQPFPQPELPYPQPQ-NH2; SMILES CC(C)C[C@H](NC(=O)[C@@H]1CCC(=O)N1)C(=O)N[C@@H](CCC(N)=O)C(=O)N1CCC[C@H]1C(=O)N[C@@H](Cc1ccccc1)C(=O)N1CCC[C@H]1C(=O)N[C@@H](CCC(N)=O)C(=O)N1CCC[C@H]1C(=O)N[C@@H](CCC(=O)O)C(=O)N[C@@H](CC(C)C)C(=O)N1CCC[C@H]1C(=O)N[C@@H](Cc1ccc(O)cc1)C(=O)N1CCC[C@H]1C(=O)N[C@@H](CCC(N)=O)C(=O)N1CCC[C@H]1C(=O)N[C@@H](CCC(N)=O)C(N)=O) [SEQ ID NO: 44, gluten peptide, reference compound]",Whole blood IP-10 release,[1]; [4],201 pg/mL
same,"Whole blood IP-10 release, fold-change over medium only",[1]; [4],0.76
same,Whole blood IP-10 release,[1]; [5],384 pg/mL
same,"Whole blood IP-10 release, fold-change over medium only",[1]; [5],1.15
same,Whole blood IP-10 release,[1]; [6],320 pg/mL
same,"Whole blood IP-10 release, fold-change over medium only",[1]; [6],1.20
same,Whole blood IP-10 release,[1]; [7],1844 pg/mL
same,"Whole blood IP-10 release, fold-change over medium only",[1]; [7],5.90
same,Whole blood IP-10 release,[1]; [8],1616 pg/mL
same,"Whole blood IP-10 release, fold-change over medium only",[1]; [8],5.83
same,Whole blood IP-10 release,[1]; [9],10000 pg/mL
same,"Whole blood IP-10 release, fold-change over medium only",[1]; [9],49.76
same,Whole blood IP-10 release,[1]; [10],977 pg/mL
same,"Whole blood IP-10 release, fold-change over medium only",[1]; [10],1.32
same,Whole blood IP-10 release,[1]; [11],3293 pg/mL
same,"Whole blood IP-10 release, fold-change over medium only",[1]; [11],3.69
same,Whole blood IFNg release,[2]; [4],39 pg/mL
same,"Whole blood IFNg release, fold-change over medium only",[2]; [4],0.71
same,Whole blood IFNg release,[2]; [5],55 pg/mL
same,"Whole blood IFNg release, fold-change over medium only",[2]; [5],0.84
same,Whole blood IFNg release,[2]; [6],4.1 pg/mL
same,"Whole blood IFNg release, fold-change over medium only",[2]; [6],1.06
same,Whole blood IFNg release,[2]; [7],13.9 pg/mL
same,"Whole blood IFNg release, fold-change over medium only",[2]; [7],2.85
same,Whole blood IFNg release,[2]; [8],102 pg/mL
same,"Whole blood IFNg release, fold-change over medium only",[2]; [8],1.05
same,Whole blood IFNg release,[2]; [9],200 pg/mL
same,"Whole blood IFNg release, fold-change over medium only",[2]; [9],2.03
same,Whole blood IFNg release,[2]; [10],407 pg/mL
same,"Whole blood IFNg release, fold-change over medium only",[2]; [10],1.71
same,Whole blood IFNg release,[2]; [11],194 pg/mL
same,"Whole blood IFNg release, fold-change over medium only",[2]; [11],1.29
same,Whole blood IL-2 release,[3]; [4],3.2 pg/mL
same,"Whole blood IL-2 release, fold-change over medium only",[3]; [4],1.00
same,Whole blood IL-2 release,[3]; [5],3.2 pg/mL
same,"Whole blood IL-2 release, fold-change over medium only",[3]; [5],1.00
same,Whole blood IL-2 release,[3]; [6],3.2 pg/mL
same,"Whole blood IL-2 release, fold-change over medium only",[3]; [6],1.00
same,Whole blood IL-2 release,[3]; [7],12.2 pg/mL
same,"Whole blood IL-2 release, fold-change over medium only",[3]; [7],3.82
same,Whole blood IL-2 release,[3]; [8],12.5 pg/mL
same,"Whole blood IL-2 release, fold-change over medium only",[3]; [8],2.52
same,Whole blood IL-2 release,[3]; [9],88.5 pg/mL
same,"Whole blood IL-2 release, fold-change over medium only",[3]; [9],20.88
same,Whole blood IL-2 release,[3]; [10],144.4 pg/mL
same,"Whole blood IL-2 release, fold-change over medium only",[3]; [10],2.30
same,Whole blood IL-2 release,[3]; [11],71.2 pg/mL
same,"Whole blood IL-2 release, fold-change over medium only",[3]; [11],1.69
"(pE)QPFPQPEQPFPWQP-NH2 ([pGlu]QPFPQPEQPFPWQP-NH2; SMILES NC(=O)CC[C@H](NC(=O)[C@H](Cc1c[nH]c2ccccc12)NC(=O)[C@@H]1CCCN1C(=O)[C@H](Cc1ccccc1)NC(=O)[C@@H]1CCCN1C(=O)[C@H](CCC(N)=O)NC(=O)[C@H](CCC(=O)O)NC(=O)[C@@H]1CCCN1C(=O)[C@H](CCC(N)=O)NC(=O)[C@@H]1CCCN1C(=O)[C@H](Cc1ccccc1)NC(=O)[C@@H]1CCCN1C(=O)[C@H](CCC(N)=O)NC(=O)[C@@H]1CCC(=O)N1)C(=O)N1CCC[C@H]1C(N)=O) [SEQ ID NO: 43, gluten peptide, reference compound]",Whole blood IP-10 release,[1]; [4],218 pg/mL
same,"Whole blood IP-10 release, fold-change over medium only",[1]; [4],0.82
same,Whole blood IP-10 release,[1]; [5],501 pg/mL
same,"Whole blood IP-10 release, fold-change over medium only",[1]; [5],1.49
same,Whole blood IP-10 release,[1]; [6],376 pg/mL
same,"Whole blood IP-10 release, fold-change over medium only",[1]; [6],1.42
same,Whole blood IP-10 release,[1]; [7],1140 pg/mL
same,"Whole blood IP-10 release, fold-change over medium only",[1]; [7],3.65
same,Whole blood IP-10 release,[1]; [8],1934 pg/mL
same,"Whole blood IP-10 release, fold-change over medium only",[1]; [8],6.98
same,Whole blood IP-10 release,[1]; [9],10000 pg/mL
same,"Whole blood IP-10 release, fold-change over medium only",[1]; [9],49.76
same,Whole blood IP-10 release,[1]; [10],900 pg/mL
same,"Whole blood IP-10 release, fold-change over medium only",[1]; [10],1.21
same,Whole blood IP-10 release,[1]; [11],10000 pg/mL
same,"Whole blood IP-10 release, fold-change over medium only",[1]; [11],11.21
same,Whole blood IFNg release,[2]; [4],60 pg/mL
same,"Whole blood IFNg release, fold-change over medium only",[2]; [4],1.09
same,Whole blood IFNg release,[2]; [5],62 pg/mL
same,"Whole blood IFNg release, fold-change over medium only",[2]; [5],0.95
same,Whole blood IFNg release,[2]; [6],4.5 pg/mL
same,"Whole blood IFNg release, fold-change over medium only",[2]; [6],1.19
same,Whole blood IFNg release,[2]; [7],6.4 pg/mL
same,"Whole blood IFNg release, fold-change over medium only",[2]; [7],1.32
same,Whole blood IFNg release,[2]; [8],94 pg/mL
same,"Whole blood IFNg release, fold-change over medium only",[2]; [8],0.98
same,Whole blood IFNg release,[2]; [9],258 pg/mL
same,"Whole blood IFNg release, fold-change over medium only",[2]; [9],2.63
same,Whole blood IFNg release,[2]; [10],158 pg/mL
same,"Whole blood IFNg release, fold-change over medium only",[2]; [10],0.66
same,Whole blood IFNg release,[2]; [11],150 pg/mL
same,"Whole blood IFNg release, fold-change over medium only",[2]; [11],1.00
same,Whole blood IL-2 release,[3]; [4],3.2 pg/mL
same,"Whole blood IL-2 release, fold-change over medium only",[3]; [4],1.00
same,Whole blood IL-2 release,[3]; [5],3.2 pg/mL
same,"Whole blood IL-2 release, fold-change over medium only",[3]; [5],1.00
same,Whole blood IL-2 release,[3]; [6],3.2 pg/mL
same,"Whole blood IL-2 release, fold-change over medium only",[3]; [6],1.00
same,Whole blood IL-2 release,[3]; [7],5.2 pg/mL
same,"Whole blood IL-2 release, fold-change over medium only",[3]; [7],1.61
same,Whole blood IL-2 release,[3]; [8],17.9 pg/mL
same,"Whole blood IL-2 release, fold-change over medium only",[3]; [8],3.62
same,Whole blood IL-2 release,[3]; [9],115. 9 pg/mL
same,"Whole blood IL-2 release, fold-change over medium only",[3]; [9],27.33
same,Whole blood IL-2 release,[3]; [10],41.4 pg/mL
same,"Whole blood IL-2 release, fold-change over medium only",[3]; [10],0.66
same,Whole blood IL-2 release,[3]; [11],55.1 pg/mL
same,"Whole blood IL-2 release, fold-change over medium only",[3]; [11],1.31

# From patent US10473647B1, “Peptides for use in treatment and diagnosis of type 1 diabetes” (ImmusanT, Inc., priority 2014, dated 2019)
